ChEMBL document CHEMBL3507680, “University of Dundee, Gates Library screen for HepG2 cell viability”

Assay: Human HepG2 cell viability assay in 384 well format
Format: toxicity, cell-based
Set-up: dose 125 nL, time 70.5 hour; cytotoxicity at 70.5 h: concentration not given beside the values
Details: HepG2 cells, read-out: Inhibition

c1cnc2ccc(C[C@@H]3CC[C@H](CN4CCCOCC4)O3)cc2c1
cytotoxicity at 70.5 h: -10.1%

Cc1noc(CCNC(=O)NCc2ccc(N3CCCCC3)cc2)n1
cytotoxicity at 70.5 h: -5.09%

CCCNC(=O)CNC(=O)c1scnc1C
cytotoxicity at 70.5 h: 3.25%

CC(C)(C)C(=O)N[C@H]1C[C@@H](Cc2cc(CN3CCOCC3)on2)C1(C)C
cytotoxicity at 70.5 h: -6.62%

CCSC1(CNc2ncc(Br)cn2)CCOCC1
cytotoxicity at 70.5 h: -5.62%

CNc1cc2c(nn1)CCN(C(=O)c1ccc3c(c1)OCO3)C2
cytotoxicity at 70.5 h: -8.95%

O=C(c1ccccc1OCC1CC1)N1CCCC(n2ccnc2)C1 (stereo not given)
cytotoxicity at 70.5 h: -9.12%

Cc1cc(C)c(C(=O)N2CCn3nc(C(=O)NCCN(C)C)cc3C2)[nH]1
cytotoxicity at 70.5 h: -3.17%

O=C(c1ccc(C2CCNC2)cc1)N1CCC(N2CCC(O)CC2)CC1 (stereo not given)
cytotoxicity at 70.5 h: 3.75%

COc1ccc(C[C@H]2CN(Cc3ccoc3)CC[C@H]2OC)cc1
cytotoxicity at 70.5 h: -0.279%

O=C1NC2(CCN(C(=O)c3ccc(Cl)cc3)CC2)CC1c1ccccc1 (stereo not given)
cytotoxicity at 70.5 h: 20.8%

O=S(=O)(c1ccccc1)N1CCC2(CCCN2Cc2cccnc2)C1 (stereo not given)
cytotoxicity at 70.5 h: 10.9%

CC(C(=O)NCc1ccnc(OC2CCCC2)c1)n1cncn1 (stereo not given)
cytotoxicity at 70.5 h: -3.9%

Cc1cc(C)c(CNC(=O)Cc2ccc3c(c2)CCCC3)c(=O)[nH]1
cytotoxicity at 70.5 h: -7.45%

Cc1n[nH]cc1C(=O)N1CCCC1c1cc[nH]n1 (stereo not given)
cytotoxicity at 70.5 h: -5.51%

CCC(Nc1cccc(OC)c1)C(=O)NCc1ccc2[nH]c(=O)[nH]c2c1 (stereo not given)
cytotoxicity at 70.5 h: -11.6%

Cc1cnn(CC2CCCN2Cc2nc3ccccc3c(=O)[nH]2)c1 (stereo not given)
cytotoxicity at 70.5 h: -7.22%

CNC(=O)N1CC[C@@H]2CN(Cc3ccccc3)S(=O)(=O)[C@@H]2CC1
cytotoxicity at 70.5 h: -6.18%

CCCc1nc(C)cc(NC(C)Cc2cnccn2)n1 (stereo not given)
cytotoxicity at 70.5 h: -10.8%

CCNC(=O)NC(=O)CN1CCOC(c2ccccc2Cl)C1 (stereo not given)
cytotoxicity at 70.5 h: -9.68%

Cc1ccc(-c2nc(CN3CCn4c(nnc4C4CC4)C3)no2)cc1
cytotoxicity at 70.5 h: 10.2%

Cc1ccc(N2CCC3(CC2)CC(OCC(C)C)C3)nn1
cytotoxicity at 70.5 h: -8.68%

CC(C(=O)NCCN1CCCCCC1)n1cncn1 (stereo not given)
cytotoxicity at 70.5 h: -0.492%

CC(=O)NCC(=O)N1Cc2nccn2CC(CN2CCCC2)C1 (stereo not given)
cytotoxicity at 70.5 h: 0.0844%

Cc1cnn(C2CN(CC(=O)NCCc3ccccc3)C2)c1
cytotoxicity at 70.5 h: -16.2%

Cn1ccc(C(=O)NCc2ccccc2CN2CCCCC2)cc1=O
cytotoxicity at 70.5 h: -7.11%

CC(=O)NC(Cc1c[nH]c2cc(F)ccc12)C(=O)Nc1nonc1C (stereo not given)
cytotoxicity at 70.5 h: 22%

Clc1ccc(N2CCC(OCC3CCCCO3)CC2)nc1 (stereo not given)
cytotoxicity at 70.5 h: -1.36%

CCN(CCNC(=O)C1CCCN(C(C)=O)C1)c1ccccc1C (stereo not given)
cytotoxicity at 70.5 h: -10.5%

c1csc(-c2noc(CCCN3CCCC3Cn3cncn3)n2)c1 (stereo not given)
cytotoxicity at 70.5 h: 2.46%

Cc1cnn(C2CCCN(C(=O)c3ccn(C)c(=O)c3)C2)c1 (stereo not given)
cytotoxicity at 70.5 h: -11.3%

CN1CCCN(C(=O)c2csc(-c3ccc(C(F)(F)F)cc3)n2)CC1
cytotoxicity at 70.5 h: -7.23%

Cc1cccc(Nc2nccnc2C2CCCN2CC(N)=O)n1 (stereo not given)
cytotoxicity at 70.5 h: -2.88%

COc1cccc(-c2nnn(C3CCN(CC(F)(F)F)C3=O)n2)c1 (stereo not given)
cytotoxicity at 70.5 h: 0.471%

N#Cc1ccccc1N1CCCN(CC(=O)Nc2ccc(Cl)cn2)CC1
cytotoxicity at 70.5 h: -2.38%

Cc1ccc(C)c(C(O)CN(C)Cc2nnc3ccccn23)c1 (stereo not given)
cytotoxicity at 70.5 h: 9.37%

CC(C)NC(=O)N1CCC2(CC(=O)N(c3ccsc3)C2)C1 (stereo not given)
cytotoxicity at 70.5 h: -14.3%

CCOc1nc2cccnc2n(CC(=O)NCCOC)c1=O
cytotoxicity at 70.5 h: -14.5%

CCc1ccccc1Nc1noc2c1CN(C(=O)c1ccn(C)n1)CC2
cytotoxicity at 70.5 h: 2.97%

COc1ccccc1CC(=O)N1CCCC(n2nc(C)cc2C)C1 (stereo not given)
cytotoxicity at 70.5 h: 2.04%

COc1ccccc1C(=O)NC[C@H]1COCc2nc3c(C)cccc3n21
cytotoxicity at 70.5 h: -1.28%

CC(C)CNC(=O)C1(Cc2ccccc2-c2cccs2)CCNC1 (stereo not given)
cytotoxicity at 70.5 h: -0.684%

N#Cc1ncn(CC(=O)Nc2cc(Cl)ccc2F)n1
cytotoxicity at 70.5 h: -3.28%

CCN1CC2(CCC1=O)CCN(Cc1cscn1)CC2
cytotoxicity at 70.5 h: -10.8%

CC(C)c1nccn1C1CCCN(C(=O)c2ccc3c(c2)OCO3)C1 (stereo not given)
cytotoxicity at 70.5 h: -12.1%

Cn1ccc(C(=O)NCCOc2ccc(C(C)(C)C)cc2)cc1=O
cytotoxicity at 70.5 h: -4.21%

CS(=O)(=O)N1CCc2sc(C(=O)NCc3ccccc3)cc21
cytotoxicity at 70.5 h: -9.68%

Cn1cnc2c1C(COCc1cccnc1)N(Cc1ccccn1)CC2 (stereo not given)
cytotoxicity at 70.5 h: -3.62%

CC(c1cc(F)ccc1F)N(C)CCS(=O)(=O)CCC(N)=O (stereo not given)
cytotoxicity at 70.5 h: -8.99%

CNc1cncc(C2CCCN2C(=O)c2ccc3oc(=O)n(C)c3c2)n1 (stereo not given)
cytotoxicity at 70.5 h: 17.9%

COCCNS(=O)(=O)c1c(C)sc2ccccc12
cytotoxicity at 70.5 h: -4.03%

COc1ccc(F)c(NCc2cnn(C3CCS(=O)(=O)C3)c2)c1 (stereo not given)
cytotoxicity at 70.5 h: 8.41%

COc1ccccc1C(C)NC(=O)N1CCC(n2cncn2)CC1 (stereo not given)
cytotoxicity at 70.5 h: -7.85%

Cc1cnn(CC2CCCN2Cc2nnc(C)o2)c1 (stereo not given)
cytotoxicity at 70.5 h: -2.26%

CCNC(=O)C1CCN(c2cc(-c3ccccc3)nc3cc(C)nn23)C1 (stereo not given)
cytotoxicity at 70.5 h: -2.31%

CCCN1CCC2(CC1)COc1ccccc1S(=O)(=O)N(CC1CC1)C2
cytotoxicity at 70.5 h: -4.67%

CCNc1cc2c(nn1)CCN(C(=O)c1cccc3c1OCCO3)C2
cytotoxicity at 70.5 h: -9.67%

Cn1ncc2c1NC(=O)CC2c1c(Cl)cccc1Cl (stereo not given)
cytotoxicity at 70.5 h: -16.4%

CCN(CC1CCOC1)C(=O)c1ccc(COc2ccccc2C#N)o1 (stereo not given)
cytotoxicity at 70.5 h: -3.17%

Cc1csc(C2CCCN(C(=O)c3c(C)nn4cccnc34)C2)n1 (stereo not given)
cytotoxicity at 70.5 h: -4.25%

CCc1cc(O)n2nc(C3CCN(C(=O)c4ccncc4)CC3)cc2n1
cytotoxicity at 70.5 h: 20.6%

COCCN1CC2(CCN(C(=O)c3ccno3)CC2)c2ccccc21
cytotoxicity at 70.5 h: 27.9%

Cc1nc(C2CCCN(C(=O)c3scnc3C)C2)no1 (stereo not given)
cytotoxicity at 70.5 h: -7.6%

CCn1nc(C)c(CCNC(=O)C2CCCN(C(C)=O)C2)c1C (stereo not given)
cytotoxicity at 70.5 h: -8.81%

O=C(N[C@@H]1CN(Cc2ccoc2)[C@@H]2CCCO[C@@H]21)C1CC1
cytotoxicity at 70.5 h: -12.9%

CN1CCN(C(=O)Cc2ccc(F)cc2)Cc2cccnc21
cytotoxicity at 70.5 h: 5.52%

CCn1cc(C(=O)NCc2cccnc2N(C)Cc2ccccc2)cn1
cytotoxicity at 70.5 h: 2.58%

O=C(CCn1cccn1)NCCOc1ncc(Cl)cc1Cl
cytotoxicity at 70.5 h: -10.6%

O=c1cc(-c2ccccc2)nc2n1CCCCC2
cytotoxicity at 70.5 h: 23.6%

CCN1C(=O)[C@H]2CN(CC(C)C)C[C@H]2C12CCN(S(C)(=O)=O)CC2
cytotoxicity at 70.5 h: -6.33%

Cc1ccccc1C(C)N(C)Cc1nc2c(cnn2C)c(=O)[nH]1 (stereo not given)
cytotoxicity at 70.5 h: -6.49%

COc1cc(CNC(C)Cn2cccn2)cc(OC)c1OC (stereo not given)
cytotoxicity at 70.5 h: -7.54%

Cc1cccnc1CN(C)C(C(=O)O)c1ccc(C(C)(C)C#N)cc1 (stereo not given)
cytotoxicity at 70.5 h: -0.799%

CC(SCCC(=O)NC(N)=O)c1ccc(F)cc1F (stereo not given)
cytotoxicity at 70.5 h: -14.8%

N#CCCn1cnc2c(Br)cc(Br)cc2c1=O
cytotoxicity at 70.5 h: -3.9%

Cc1nc(CCNC(=O)C2CC(=O)N(C(C)(C)C)C2)sc1Cl (stereo not given)
cytotoxicity at 70.5 h: 4.69%

O=C(Nc1cn[nH]c1)N1CCN(CCSc2ccccc2)CC1
cytotoxicity at 70.5 h: 1.53%

CN1CCN(c2ccc(F)cc2NC(=O)NCc2ccon2)CC1
cytotoxicity at 70.5 h: 0.112%

COCc1nc(N2CCC(CCO)CC2)c2cnn(C)c2n1
cytotoxicity at 70.5 h: 2.73%

CN(Cc1cc(-c2ccncc2)no1)C(=O)[C@@H]1CSCN1C
cytotoxicity at 70.5 h: -13.1%

CCOCCNC(=O)c1cc(COc2cncc(Cl)c2)on1
cytotoxicity at 70.5 h: -0.86%

Cc1sc2ncc(-c3ccnc(NC4CCN(C)CC4)n3)c(=O)n2c1C
cytotoxicity at 70.5 h: -2.25%

Cc1nc(Nc2nnc(C)s2)cc(C2CCCN2)n1 (stereo not given)
cytotoxicity at 70.5 h: -6.91%

CN(C)CCCNc1ncnc2cccc(F)c12
cytotoxicity at 70.5 h: 15.7%

Cc1cccc(-c2ncc(CNC(C)CO)cn2)c1 (stereo not given)
cytotoxicity at 70.5 h: 27.8%

Cn1ncc2c1NC(=O)CC2c1cc(Cl)ccc1F (stereo not given)
cytotoxicity at 70.5 h: 47.5%

Cc1cc(NCCSc2nccn2C)n2ncnc2n1
cytotoxicity at 70.5 h: 17.1%

CN(C)CCNC(=O)c1cc2n(n1)CCN(C(=O)c1ccco1)C2
cytotoxicity at 70.5 h: -5.47%

CCCC1CCCN(C(=O)CCn2cccn2)CC1 (stereo not given)
cytotoxicity at 70.5 h: 22.3%

CC(C)OCCCN(Cc1cnn(C)c1)Cc1ccccn1
cytotoxicity at 70.5 h: 21.5%

COc1ccc(C(=O)CCc2nc(C3CC3)no2)cc1
cytotoxicity at 70.5 h: -23.1%

CNC(=O)COC(=O)c1ccoc1CN1c2ccccc2CC1C (stereo not given)
cytotoxicity at 70.5 h: 0.373%

CC(Cn1ccnc1)NC(=O)N(C)Cc1ccc2c(c1)OCCO2 (stereo not given)
cytotoxicity at 70.5 h: 26.7%

FC(F)(F)CN1CCC(CNc2nc3ccccc3o2)C1 (stereo not given)
cytotoxicity at 70.5 h: 1.85%

COCCN1CCCC(O)(CN2CCN(Cc3ccncc3)CC2)C1=O (stereo not given)
cytotoxicity at 70.5 h: -8.23%

Cc1ccc2c(n1)N(CCn1cccn1)CCN(C(=O)NC1CC1)C2
cytotoxicity at 70.5 h: -10.7%

CNC(=O)[C@H]1C[C@@H]2CN(C(=O)c3ccncc3F)C[C@@H]2N1C
cytotoxicity at 70.5 h: -16.9%

OC(COCc1ccccc1)CN1CC(n2cccn2)C1 (stereo not given)
cytotoxicity at 70.5 h: -3.54%

COCCN1C[C@@H]2CN(c3ncc(F)cn3)C[C@@H]2C1=O
cytotoxicity at 70.5 h: -47.2%

CCOC(C)C(=O)NCc1ccc(N(C)C)cc1 (stereo not given)
cytotoxicity at 70.5 h: -10.8%

CO[C@H]1CN(C(=O)c2ccc[nH]2)[C@@H]2COC[C@H]12
cytotoxicity at 70.5 h: -2.94%

CC(OCC1CC1)C(=O)N1CCCN(Cc2cnn(C)c2)CC1 (stereo not given)
cytotoxicity at 70.5 h: 24.6%

COc1ccccc1OCC(=O)n1ncc(C#N)c1N
cytotoxicity at 70.5 h: 9.32%

CN(CCC(F)(F)F)C(=O)C1CCCN1C(=O)OC(C)(C)C (stereo not given)
cytotoxicity at 70.5 h: 0.473%

COc1ccc(CC(=O)NCC(O)c2sccc2C)cc1OC (stereo not given)
cytotoxicity at 70.5 h: -6.12%

Cc1ccc(CNCc2c(C)nn(C)c2N(C)C)cn1
cytotoxicity at 70.5 h: -3.06%

Cc1ccc(C(=O)N2CCC(Oc3cccc(C)c3C)CC2)c(=O)[nH]1
cytotoxicity at 70.5 h: -4.54%

O=C([C@@H]1C[C@@H]2CCN(C3CCOCC3)C[C@H]2O1)N1CCCC1
cytotoxicity at 70.5 h: -4.52%

Cc1ccc(-c2ncc(C(=O)NCCNC(=O)C(C)C)s2)c(C)c1
cytotoxicity at 70.5 h: -8.72%

CC(=O)NCCCC(=O)N1CCC(Sc2cccc(C)c2)CC1
cytotoxicity at 70.5 h: -12.1%

Cc1nc(C)n(CC2CCCCN2CCCS(N)(=O)=O)n1 (stereo not given)
cytotoxicity at 70.5 h: -5.16%

Cc1cc(Cl)ccc1NCc1ccc(C(=O)N(C)C)[nH]1
cytotoxicity at 70.5 h: -4.01%

O=C(CC1CC1)N1CCN(Cc2ccncc2)c2ncccc2C1
cytotoxicity at 70.5 h: -11.9%

Cc1n[nH]c(C2CN(CCCOc3cccc(Cl)c3)CCO2)n1 (stereo not given)
cytotoxicity at 70.5 h: -14.2%

COc1ccc(C(C)N2CCC(NS(C)(=O)=O)CC2)cc1Cl (stereo not given)
cytotoxicity at 70.5 h: 10.5%
